One series has as its system NFκB. As to the kind of experiment: NFκB luciferase reporter assay in SW480/NRE-Luc cells stimulated with TNFα. The series is classed as cell-based, human. Particulars: Homo sapiens, SW480, read-out: NFκB inhibitory activity IC50. An excerpt: (§1) The action of the phenanthroindolizidine alkaloid compound of the present invention on the NFκB activity was studied in a luciferase assay. Human colon cancer SW480 cells were transfected with pNFκB-Luc Plasmid (Stratagene), which is a reporter vector in which a five-time tandem repeat of the NFκB responsive element (NRE) is integrated into the upstream of the luciferase gene, using Lipofectamine 2000 (Invitrogen Corporation) in accordance with the attached operating procedure. Subsequently, the cells were cultured in an RPMI1640 medium containing 10% FBS, 100 U/mL penicillin, 100 μg/mL streptomycin, and 0.5 mg/mL G418 to produce SW480 cells having the luciferase gene, the expression of which is regulated by NRE, stably introduced therein (SW480/NRE-Luc cells). Likewise, SW480 cells were transfected with pGL3-Control Vector (Promega Corporation), which is a reporter vector in which the SV40 promoter is integrated into the upstream of the luciferase gene, to produce SW480 cells having the luciferase gene, the expression of which is regulated by the SV40 promoter, stably introduced therein (SW480/SV40-Luc cells). The SW480/NRE-Luc cells or the SW480/SV40-Luc cells were suspended in an RPMI1640 medium containing 10% FBS, 100 U/mL penicillin, and 100 μg/mL streptomycin (10% FBS/RPMI1640), and then seeded in a 96-well microplate, followed by culturing under conditions of 5% CO2 and at 37° C. (5000 cells/well). After an overnight culture, the compound of the present invention was added, followed by culturing for one hour. Further, 50 ng/mL TNFα (Sigma-Aldrich Corporation) was added, followed by culturing for four hours. Subsequently, a Steady-Glo Luciferase Assay reagent (Promega Corporation) was added, and the luminescent intensity was detected by SpectraMax M5e (Molecular Devices, Inc.) to measure the intracellular luciferase activity. It is to be noted that the action of the compound of the present invention on the NFκB activity or the SV40 promoter activity was shown as IC50 values (the concentration of a test compound needed for 50% inhibition of the induction of the luciferase expression).
On the technique in general: In a reporter assay the amount or activity of a reporter protein is the signal.

Series [1] relates to mice with TPA-induced ear edema. The series is described as follows: Anti-inflammatory effect in mice with TPA-induced ear edema. The class given is in vivo, mouse. Particulars: intraperitoneal, 30 minutes before TPA 5 μg/ear; ICR mice; four hours after TPA. Here is the method: The anti-inflammatory effect of the phenanthroindolizidine alkaloid compound of the present invention in vivo was studied using mice with phorbol 12-myristate 13-acetate (TPA)-induced ear edema. Compound 11, a compound of the present invention, was intraperitoneally administered to male 6-week-old ICR mice, and after 30 minutes, TPA (Sigma-Aldrich Corporation) dissolved in acetone was applied to the front and back of the right ear of the mice (5 μg/ear). Four hours after application of TPA, the thickness of the auricle was measured by a dial thickness gauge (Ozaki Mfg Co. Ltd.). A control group was administered with a 5% glucose solution as a solvent.

The test system of series [2] is human colon cancer SW480 cells. The series is described as follows: Inhibitory action on the proliferation of SW480 cells. The class given is cell-based. The note with it: Homo sapiens, SW480; 48 hours culture, TetraColor ONE. Here is the method:
(§2) The action of the phenanthroindolizidine alkaloid compound of the present invention on the proliferation of human colon cancer SW480 cells, HT-29 cells, and human non-small cell lung cancer A549 cells was studied. The SW480 cells were suspended in a 10% FBS/RPMI1640 and then seeded in a 96-well microplate, followed by culturing in 5% CO2 at 37° C. (2000 cells/well). The A549 cells and the HT-29 cells were each suspended in a DMEM medium containing 10% FBS, 100 U/mL penicillin, and 100 μg/mL streptomycin (10% FBS/DMEM) and a DMEM F-12 HAM medium containing 10% FBS, 100 U/mL penicillin, and 100 μg/mL streptomycin (10% FBS/DMEM F12 HAM), and then seeded in 96-well microplates, followed by culturing in 5% CO2 at 37° C. (1000 cells/well). After an overnight culture, the compound of the present invention was added, followed by further culturing for 48 hours (SW480 cells) and 96 hours (A549 cells and HT-29 cells). After culturing, the number of viable cells was counted using TetraColor ONE (Seikagaku Corporation) in accordance with the attached operating procedure. The results were expressed as the concentration of a test compound needed for 50% inhibition of the proliferation of the cells (IC50).

The next series relates to mice. The series is described as follows: Animal toxicity test in mice transplanted with Meth A cells. The note with it: intravenous on days 1, 5, 9, observed for three weeks. The series is classed as in vivo, mouse. Here is the method:
Also, the toxicity of known phenanthroindolizidine alkaloid compounds in mice, namely (12aS,13S)-6,7-dimethoxy-9,10,11,12,12a,13-hexahydro-9a-aza-cyclopenta[b]triphenylene-3,13-diol (known compound 1; refer to WO01/023384) and (12aS,13S)-3,6,7-trimethoxy-9,10,11,12,12a,13-hexahydro-9a-aza-cyclopenta[b]triphenylene-13-ol (known compound 2; refer to Planta Med., 2002, 68: 186-188), was simultaneously studied. To a control group, a physiological saline solution as a solvent, was administered.

The nature of series [3]: Measurement of solubility. The note with it: saline or isotonic. An excerpt:
In in vivo studies, the phenanthroindolizidine alkaloid compounds were used in the form of a salt.

For series [4], the system named is human colon cancer HT-29 cells. As to the kind of experiment: Inhibitory action on the proliferation of HT-29 cells. The series is classed as cell-based. Particulars: Homo sapiens, HT-29; 96 hours culture, TetraColor ONE. Here is the method: as §2
The test system of a further series is SV40 promoter. As to the kind of experiment: SV40 promoter luciferase reporter assay in SW480/SV40-Luc cells. The class given is cell-based, human. The note with it: Homo sapiens, SW480, read-out: SV40 promoter inhibitory activity IC50.
Description: as §1

For series [5], the system named is human non-small cell lung cancer A549 cells. As to the kind of experiment: Inhibitory action on the proliferation of A549 cells. The note with it: Homo sapiens, A549; 96 hours culture, TetraColor ONE. The series is classed as cell-based. Here is the method: as §2
Series [6] relates to mouse fibrosarcoma Meth A cells. The series is described as follows: Antitumor effect in mice transplanted with mouse fibrosarcoma Meth A cells. The class given is in vivo. Particulars: intravenous on days 1, 5, 9, BALB/c mice, tumor weight on day 21. On the procedure: The antitumor effect of the phenanthroindolizidine alkaloid compound of the present invention in vivo was studied using mice transplanted with mouse fibrosarcoma Meth A cells. Meth A cells were transplanted subcutaneously in the inguinal region of male 7-week-old BALB/c mice (2.5×10^5 cells/mouse). Subsequently, on days 1, 5, and 9, the compound of the present invention was intravenously administered. To a control group, physiological saline as a solvent, was administered. On day 21 after the cell transplantation, tumor was excised and measured for its weight, and subsequently a tumor growth-inhibition rate IR (%) was obtained by the following formula. Tumor growth-inhibition rate IR(%)=(1−the weight of the tumor in an administration group/the weight of the tumor in a control group)×100

Marks after values point to notes of the source that are not given here.

This note sets out measurements from US9174979B2, “Phenanthroindolizidine compound and NFκB inhibitor containing same as active ingredient” (KABUSHIKI KAISHA YAKULT HONSHA, priority 2008, dated 2015).

Consider `COc1cc2c3c(c4ccc(O)cc4c2cc1OC)C[C@@H]1CCCN1C3.Cl` [Compound 11, (S)-6,7-dimethoxy-9,10,11,12,12a,13-hexahydro-9a-aza-cyclopenta[b]triphenylene-3-ol hydrochloride], for which the IC50 (usually the concentration that gives 50% inhibition) in the series on NFκB is 1.2 ng/mL; in series [2] it was 3.8 ng/mL; in series [4] it was 0.62 ng/mL; in the series on SV40 promoter, above 10 ng/mL; in series [5] it was 0.024 ng/mL. In addition, the “Anti-inflammatory effect (thickness of the auricle)” value in series [1] is “inhibiting TPA-induced ear edema in a dose-dependent manner”. Also, the Mortality rate in the series with mice (total dose 25 mg/kg) and with mice (total dose 50 mg/kg) was 0/5 throughout. Further, the solubility (as a rule, the concentration that dissolves in the medium under given conditions) in series [3] came to 4000 µg/mL. Further, the “Tumor growth inhibition rate IR” value is reported as 52.1** % in series [6] (total dose 25 mg/kg) and 64.6** % in series [6] (total dose 50 mg/kg).
